Usually IC50 stands for the concentration that gives 50% inhibition.

This test can be described thus: Antagonist activity against CXCR4 in human SUP-T1 cells assessed as inhibition of SDF-1alpha-induced cell migration preincubated with cells for 30 mins followed by incubation with SDF-1alpha for 3 hrs by CellTiter-96 reagent based transwell assay.

In the case of `CC(C)C[C@@H](N)C(=O)NCC(=O)N[C@H](C)C(=O)N[C@H](CO)C(=O)N[C@H](Cc1c[nH]c2ccccc12)C(=O)N[C@H](Cc1cnc[nH]1)C(=O)N[C@H](CCCNC(=N)N)C(=O)N1CCC[C@@H]1C(=O)N[C@H](CC(=O)O)C(=O)N[C@H](CCCCN)C(=O)N[C@H](CCCCN)C(=O)N[C@H](CCCNC(=N)N)C(=O)N(CCCCCC(=O)O)[C@@H](CCCCN)C(=O)N[C@@H](CCCNC(=N)N)C(=O)N[C@@H](CCCCN)C(=O)N[C@@H](CCC(N)=O)C(=O)N[C@@H](CCCNC(=N)N)C(=O)NCC(=O)N1CCC[C@H]1C(=O)NCC(=O)N[C@@H](CCCNC(=N)N)C(=O)N[C@@H](C)C(=O)N[C@@H](Cc1ccccc1)C(N)=O`, the IC50 amounted to 6.08 µM.
As for `CC(C)C[C@@H](N)C(=O)NCC(=O)N[C@H](C)C(=O)N[C@H](CO)C(=O)N[C@H](Cc1c[nH]c2ccccc12)C(=O)N[C@H](Cc1cnc[nH]1)C(=O)N[C@H](CCCNC(=N)N)C(=O)N1CCC[C@@H]1C(=O)N[C@H](CC(=O)O)C(=O)N[C@H](CCCCN)C(=O)N[C@H](CCCCN)C(=O)N[C@H](CCCNC(=N)N)C(=O)N(CCCCCC(=O)O)[C@H](CCCCN)C(=O)N[C@H](CCCNC(=N)N)C(=O)N[C@H](CCCCN)C(=O)N[C@H](CCC(N)=O)C(=O)N[C@H](CCCNC(=N)N)C(=O)NCC(=O)N1CCC[C@@H]1C(=O)NCC(=O)N[C@H](CCCNC(=N)N)C(=O)N[C@H](C)C(=O)N[C@H](Cc1ccccc1)C(N)=O`, the figure is 0.87 µM.

For the origin of these results see BindingDB's records for PubMed 36270088 (n/a, 2022).
